In patent US8710068B2, “Method of treating cancer using a survivin inhibitor” (The Trustees Of The University Of Pennsylvania, priority 2009, dated 2014):

Tests used:
[1] = test system: AsPC1 pancreatic cancer cells; assay: MTT tumor cell proliferation assay, AsPC1; assay type: cell-based, human; settings: AsPC1, 5, 10, 20, or 50 μg/ml for 48 hours
Experimental: (§1) FIG. 3 illustrates the effect of S2 and its analogs on tumor cell proliferation. Cells were treated with DMSO or Survivin targeting molecules at the indicated concentration for 48 hours. The percentage of viable cells was evaluated by MTT assay. (A) AsPC1; (B) HeLa; (C) SKBR3; (D) DAOY.
(§2) FIG. 18 illustrates the effect of SBDO3, SN2, or SDC1 on tumor cell proliferation. (A) AsPC1 cells were treated with DMSO or the Survivin targeting molecules SBDO3 or SN2 at the indicated concentration for 48 hours. (B) SKBR3 cells were treated with DMSO or SDC1 for 48 hours. The percentage of viable cells was evaluated by MTT assay.
(§3) S2 and its analogs (S10, S11, S12, and S13) were tested for the ability to inhibit tumor cell proliferation by MTT assay. The AsPC1 pancreatic cancer cells were treated with DMSO, a control molecule SC2, or the Survivin-targeting compounds at the concentration of 5, 10, 20, or 50 μg/ml for 48 hours. The number of viable cells was evaluated by MTT.
(§4) SBDO3, SN2 and SDC1 were tested for the ability to inhibit tumor cell proliferation by MTT assay. The AsPC1 pancreatic cancer cells were treated with DMSO or the Survivin-targeting compounds at the concentration of 5, 10, 20, or 50 μg/ml for 48 hours. The number of viable cells was evaluated by MTT.

HeLa cells [2] = assay: Cell cycle analysis of DNA content by PI staining and FACS, HeLa; assay type: cell-based, human; settings: for accumulation of cells in the G2/M stage: HeLa, 15 hours, FACS DNA content; for block of cells in mitosis: FACS analysis and immunofluorescence studies
Experimental: FIG. 7 illustrates the effect of S2 or S12 on cell cycle progression. HeLa cells were treated with S2, S12, S10, S1 (control compound), or DMSO (control), propidium iodide (PI) staining and FACS analysis were performed to quantify the DNA content of cells.
FIG. 9 illustrates the effect of S12 on mitosis. (A) HeLa cells were treated with S12, S2 or DMSO for 15 hours. The cells were then fixed and subjected to immunostaining using antibodies specific for Aurora B (green) and Survivin (red). DNA was stained with DAPI. Chromosome misalignment is indicated with the arrowheads. (B) Percentage of S12-treated cells in mitosis, in metaphase, in anaphase/telophase, or with misaligned chromosomes. (C) Percentage of S2-treated cells in mitosis, in metaphase, in anaphase/telophase, or with misaligned chromosomes. (D) HeLa cells were treated with S12 (10 μg/ml) or DMSO (control) for 15 hours. Cells were examined by PI staining of DNA content by FACS analysis.
FIG. 17 illustrates (A) FACS analysis of DNA content of HeLa cells treated with SBDO3. Note the accumulation of cells at the G2/M stage. Cell death was also observed (sub-G1 population); (B) Immuno-fluorescence microscopy analysis of cell treated with SBDO3. Note that the microtubule bundles of the mitotic spindle are disorganized. The chromosomes are not aligned properly and cells cannot go through metaphase.
The candidate Survivin-targeting molecules identified by the virtual screen were examined for the ability to inhibit cell proliferation and mitosis. HeLa cells were treated with the compounds at various concentrations for 15 hours followed by examination of the DNA content by FACS analysis. […] The effects of S2 inflicted on cell proliferation and viability are consistent with the anticipated outcome caused by the ablation of Survivin functions. We have extended these studies to test a number of molecules that are structurally similar to S2, including S10, S11, S12 and S13. […] S12 affected cell proliferation and viability, consistent with the anticipated outcome caused by ablation of Survivin functions.
We analyzed distribution of cells in the different stages of the cell cycle by FACS. […] In addition, the inhibitory effect of SBDO3 is dose dependent (FIG. 17A).
We also conducted immuno-fluorescence studies on SBDO3 treated HeLa cells.

Survivin protein = target: T1, Survivin protein (Homo sapiens, UniProt O15392); assay: Isothermal titration calorimetry (ITC) binding to native Survivin; settings: ITC, in words
T1 construct: made in house; host or cells: bacteria
Experimental: FIG. 5 illustrates an analysis of S12-Survivin binding with isothermal titration calorimetry (ITC). Single-site point mutagenesis was performed to create the Survivin mutants F86A and V89Y. The native and the mutant proteins were produced and purified from bacteria.
FIG. 16 illustrates the isothermal titration calorimetry profile of the binding of SBDO3 to the Survivin homodimer.
In order to examine the specificity of the binding, we generated point mutations on the Survivin protein at the site presumably targeted by S12. The two mutations were substitutions of phenylalanine 86 with alanine (F86A) and valine 89 with tyrosine (V89Y). These two altered sites are also adjacent to the interface involved in dimerization of the Survivin protein. Based on structural analyses, we predict that alterations of either of these two amino acid residues may abolish the binding of S12 without affecting the overall structure of the Survivin protein.
We tested the binding of the Survivin target molecules to Survivin by isothermal titration calorimetry.

SKBR3 breast cancer cell = assay: MTT tumor cell proliferation assay, SKBR3; assay type: cell-based, human; settings: SKBR3, 48 hours
Experimental: as §1, §2, §3, §4

HeLa cells [3] = assay: BrdU incorporation DNA synthesis assay (FACS), HeLa; assay type: cell-based, human; settings: 4 hours treatment then one-hour BrdU
Experimental: BrdU-labeled cells were analyzed by FACS. The percentage of BrdU-positive cells is indicated.
HeLa cells were treated with S12, aphidicolin, or DMSO (control) for 4 hours. BrdU was then added to the medium followed by an additional incubation of 1 hour. The amount of BrdU was examined by staining with anti-BrdU antibody and FACS analysis. The percentage of BrdU-positive cells is shown.
To establish the specificity of the biological activities of the Survivin targeting we examined whether the compounds affect DNA synthesis. HeLa cells were treated with Aphidicolin, S2 or DMSO for 4 hours, followed by one-hour incubation with BrdU. The cells were then collected, fixed and stained with FITC-labeled anti-BrdU antibody.

T1 sequence (O15392 whole entry): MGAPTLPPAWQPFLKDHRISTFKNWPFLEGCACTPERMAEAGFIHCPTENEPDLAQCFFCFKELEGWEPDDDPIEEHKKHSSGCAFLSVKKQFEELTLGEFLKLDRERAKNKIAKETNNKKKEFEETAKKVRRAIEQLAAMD

Row | SMILES | inhibition of cell proliferation / cell viability [1] | accumulation of cells in the G2/M stage (HeLa cells [2]) | binding to the Survivin protein (Survivin protein) | inhibition of proliferation (SKBR3 breast cancer cell) | block of cells in mitosis (HeLa cells [2]) | DNA synthesis (BrdU incorporation) (HeLa cells [3])
1 | O=C(CC1(O)C(=O)Nc2ccc(Br)cc21)c1ccc(F)cc1 (stereo not shown) [S10] | can inhibit cell proliferation and reduce cell viability in a dose-dependent manner | exhibit the ability to arrest the cells at the G2/M stage |  |  |  | 
2 | O=C(CC1(O)C(=O)Nc2ccc(Br)cc21)c1cccc([N+](=O)[O-])c1 (stereo not shown) [S11] | can inhibit cell proliferation and reduce cell viability in a dose-dependent manner | exhibit the ability to arrest the cells at the G2/M stage |  |  |  | 
3 | O=C(CC1(O)C(=O)Nc2ccccc21)c1ccccc1 (stereo not shown) [S13] | can inhibit cell proliferation and reduce cell viability in a dose-dependent manner | exhibit the ability to arrest the cells at the G2/M stage |  |  |  | 
4 | O=C(O)c1ccccc1C(=O)c1ccc(Sc2ccccc2)c([N+](=O)[O-])c1 [SDC1] | can inhibit cell proliferation and reduce cell viability in a dose-dependent manner |  | can bind to the Survivin protein | can inhibit proliferation | can also block cells in mitosis | 
5 | COc1ccc(C2C(C#N)=C(N)OC3=C2C(=O)CC(C)(C)C3)cc1OCc1ccccc1 (stereo not shown) [SN2] | can inhibit cell proliferation and reduce cell viability in a dose-dependent manner |  |  |  | can also block cells in mitosis | 
6 | C[C@@]1(CO)[C@H](O)CC[C@@]2(C)[C@H]1CC[C@H]1C[C@@H]3C[C@@]12CC[C@]3(O)CO [aphidicolin, reference compound] |  |  |  |  |  | inhibits DNA replication
